According to PubChem BioAssay (NCI):
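Exposure lasted 48 hours, with cells grown in 96-well plates and compounds tested at five concentrations. The concentration for 50% growth inhibition is given as GI50. TGI is the concentration that stops growth completely.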

What was measured:
Assay in all cases: NCI-60 cell line screen, 48 h; in the data active means GI50 below about 0.43 µM; inactive means the rest
SNB-75 CNS = tested on: SNB-75 CNS
SNB-19 CNS = tested on: SNB-19 CNS
OVCAR-4 ovarian = tested on: OVCAR-4 ovarian
M14 melanoma = tested on: M14 melanoma
SF-539 CNS = tested on: SF-539 CNS
KM12 colon = tested on: KM12 colon
NCI-H522 lung = tested on: NCI-H522 lung
CCRF-CEM leukemia = tested on: CCRF-CEM leukemia
ACHN renal = tested on: ACHN renal
MCF7 breast = tested on: MCF7 breast

CC(C)C(=O)[O-].CC(C)C(=O)[O-].N.N.N.N.[Co+3].[O-][Cl+3]([O-])([O-])[O-]
> 100 µM: TGI (SNB-75 CNS) | TGI (SNB-19 CNS) | TGI (OVCAR-4 ovarian) | TGI (M14 melanoma) | TGI (SF-539 CNS) | TGI (KM12 colon) | TGI (NCI-H522 lung) | TGI (CCRF-CEM leukemia) | TGI (ACHN renal)
inactive: GI50 (SNB-75 CNS) > 100 µM | GI50 (SNB-19 CNS) > 100 µM | GI50 (OVCAR-4 ovarian) > 100 µM | GI50 (M14 melanoma) > 100 µM | GI50 (SF-539 CNS) > 100 µM | GI50 (KM12 colon) > 100 µM | GI50 (NCI-H522 lung) > 100 µM | GI50 (CCRF-CEM leukemia) > 100 µM | GI50 (ACHN renal) > 100 µM

COc1cc(/C=C\c2ccc(Br)cc2)cc(OC)c1OC
0.00151 µM: TGI (NCI-H522 lung)
> 100 µM: TGI (SNB-19 CNS) | TGI (KM12 colon) | TGI (ACHN renal)
13.8 µM: TGI (CCRF-CEM leukemia)
64.1 µM: TGI (OVCAR-4 ovarian)
0.00366 µM: TGI (SF-539 CNS)

CCOC(=O)C1=C(Nc2ccc(Br)cc2)OC/C1=N\NC(=O)c1ccccc1O
> 100 µM: TGI (SNB-19 CNS) | TGI (OVCAR-4 ovarian) | TGI (M14 melanoma) | TGI (KM12 colon) | TGI (ACHN renal)
34.2 µM: TGI (NCI-H522 lung)
34.3 µM: TGI (CCRF-CEM leukemia)
> 77.6 µM: TGI (SF-539 CNS)
> 48.3 µM: TGI (SNB-75 CNS)

Fc1ccc2c(c1)C1=C(CO2)C(c2ccc(Cl)cc2)NC(=S)N1 (centres undefined)
57.5 µM: TGI (M14 melanoma)
inactive: GI50 (SNB-75 CNS) 96.8 µM | GI50 (SNB-19 CNS) 44.1 µM | GI50 (OVCAR-4 ovarian) 51.9 µM | GI50 (MCF7 breast) 18.1 µM | GI50 (M14 melanoma) 24 µM | GI50 (SF-539 CNS) 23 µM | GI50 (KM12 colon) 17.8 µM | GI50 (ACHN renal) 37.4 µM
42.2 µM: TGI (MCF7 breast)
44.1 µM: TGI (SF-539 CNS)
> 100 µM: TGI (SNB-75 CNS) | TGI (SNB-19 CNS) | TGI (OVCAR-4 ovarian) | TGI (ACHN renal)
38.9 µM: TGI (KM12 colon)

CC(=O)OC1CCC2C(=CCC3C2(C)C(=O)CC2(C)C(C4(C)OC(C(C)C)=CC4=O)C(O)CC32C)C1(C)C (centres undefined)
> 100 µM: TGI (SNB-75 CNS) | TGI (SNB-19 CNS) | TGI (NCI-H522 lung) | TGI (ACHN renal)
33.2 µM: TGI (SF-539 CNS)
> 10 µM: TGI (KM12 colon)
56.5 µM: TGI (CCRF-CEM leukemia)
50.9 µM: TGI (M14 melanoma)

CNC1=C(C(=O)OC)SC(c2ccccc2)(c2ccccc2)SC1
82.6 µM: TGI (OVCAR-4 ovarian)
67.7 µM: TGI (M14 melanoma)
> 100 µM: TGI (SNB-75 CNS) | TGI (SNB-19 CNS) | TGI (MCF7 breast) | TGI (SF-539 CNS) | TGI (KM12 colon) | TGI (NCI-H522 lung)
inactive: GI50 (SNB-75 CNS) 26.1 µM | GI50 (SNB-19 CNS) 52.8 µM | GI50 (OVCAR-4 ovarian) 8.58 µM | GI50 (MCF7 breast) 11.6 µM | GI50 (M14 melanoma) 7.12 µM | GI50 (SF-539 CNS) 26.3 µM | GI50 (KM12 colon) 6.92 µM | GI50 (NCI-H522 lung) 4.01 µM

CC(=O)/C=C1\CC(=O)Nc2ccccc2N1
> 100 µM: TGI (SNB-75 CNS) | TGI (SNB-19 CNS) | TGI (OVCAR-4 ovarian) | TGI (M14 melanoma) | TGI (SF-539 CNS) | TGI (KM12 colon) | TGI (CCRF-CEM leukemia) | TGI (ACHN renal)

CCn1c(=O)c2ccccc2n2c(=O)c3cc4ccccc4cc3nc12
95.3 µM: TGI (SNB-75 CNS)
> 100 µM: TGI (SNB-19 CNS) | TGI (M14 melanoma) | TGI (SF-539 CNS) | TGI (KM12 colon) | TGI (NCI-H522 lung) | TGI (CCRF-CEM leukemia) | TGI (ACHN renal)

CS/C(c1ccccc1)=[N+](\[O-])Cc1ccccc1
> 100 µM: TGI (SNB-75 CNS) | TGI (SNB-19 CNS) | TGI (OVCAR-4 ovarian) | TGI (M14 melanoma) | TGI (SF-539 CNS) | TGI (KM12 colon) | TGI (NCI-H522 lung) | TGI (CCRF-CEM leukemia) | TGI (ACHN renal)

COc1ccc2c(CCNC(=O)/C=C/c3ccccc3)c(C(C)=O)[nH]c2c1[N+](=O)[O-]
> 100 µM: TGI (SNB-19 CNS) | TGI (OVCAR-4 ovarian) | TGI (M14 melanoma) | TGI (KM12 colon) | TGI (CCRF-CEM leukemia) | TGI (ACHN renal)
61 µM: TGI (SF-539 CNS)
18.9 µM: TGI (NCI-H522 lung)

CCOC(=O)N1C(c2ccccc2)C=CC(c2ccccc2)N1C(=O)OCC (centres undefined)
> 100 µM: TGI (SNB-75 CNS) | TGI (SNB-19 CNS) | TGI (OVCAR-4 ovarian) | TGI (SF-539 CNS) | TGI (KM12 colon) | TGI (CCRF-CEM leukemia) | TGI (ACHN renal)

O=C(O)c1ccccc1N=Nc1ccc2oc(=O)c(C(=O)Nc3ccccc3)cc2c1
98.3 µM: TGI (SNB-75 CNS)
> 100 µM: TGI (SNB-19 CNS) | TGI (M14 melanoma) | TGI (SF-539 CNS) | TGI (KM12 colon) | TGI (NCI-H522 lung) | TGI (CCRF-CEM leukemia) | TGI (ACHN renal)

N#Cc1ccc(Oc2cccc(Oc3ccccc3)c2)cc1C#N
> 100 µM: TGI (SNB-19 CNS) | TGI (OVCAR-4 ovarian) | TGI (M14 melanoma) | TGI (SF-539 CNS) | TGI (KM12 colon) | TGI (NCI-H522 lung) | TGI (CCRF-CEM leukemia) | TGI (ACHN renal)
inactive: GI50 (M14 melanoma) > 100 µM | GI50 (KM12 colon) > 100 µM
31.6 µM: TGI (SNB-75 CNS)

CCC1(NC(=O)c2cc(F)c(F)c(F)c2F)C(=O)NC(=O)N(C(C)C)C1=O (centres undefined)
45.9 µM: TGI (SNB-75 CNS)
75.3 µM: TGI (CCRF-CEM leukemia)
inactive: GI50 (SNB-75 CNS) 21.3 µM | GI50 (SNB-19 CNS) 19.6 µM | GI50 (OVCAR-4 ovarian) > 100 µM | GI50 (MCF7 breast) > 100 µM | GI50 (M14 melanoma) 10.3 µM | GI50 (SF-539 CNS) > 100 µM | GI50 (KM12 colon) > 100 µM | GI50 (CCRF-CEM leukemia) 19.8 µM | GI50 (ACHN renal) 73.5 µM
42.2 µM: TGI (SNB-19 CNS)
> 100 µM: TGI (OVCAR-4 ovarian) | TGI (MCF7 breast) | TGI (SF-539 CNS) | TGI (KM12 colon) | TGI (ACHN renal)
34.6 µM: TGI (M14 melanoma)

O=C(N/C(=C\c1ccc(/C=C(\NC(=O)c2ccccc2)c2nc3ccccc3s2)cc1)c1nc2ccccc2s1)c1ccccc1
5.28 µM: TGI (CCRF-CEM leukemia)
4.1 µM: TGI (NCI-H522 lung)
22.6 µM: TGI (KM12 colon)
4.61 µM: TGI (SF-539 CNS)
19.6 µM: TGI (OVCAR-4 ovarian)
26.7 µM: TGI (SNB-75 CNS)
11.9 µM: TGI (M14 melanoma)
14.5 µM: TGI (SNB-19 CNS)
16.7 µM: TGI (ACHN renal)

Cn1c(=O)c(C(=O)NC(=O)NCCCCCOC(=O)CCCCCCCCCCC(=O)OCCCCCNC(=O)NC(=O)c2cn(Cc3ccccc3)c(=O)n(C)c2=O)cn(Cc2ccccc2)c1=O
> 100 µM: TGI (SNB-75 CNS) | TGI (SNB-19 CNS) | TGI (OVCAR-4 ovarian) | TGI (M14 melanoma) | TGI (SF-539 CNS) | TGI (KM12 colon) | TGI (NCI-H522 lung) | TGI (CCRF-CEM leukemia) | TGI (ACHN renal)

CCOC(=O)c1ccc(N2C(=O)Cc3ccccc3C2=O)cc1
> 100 µM: TGI (SNB-75 CNS) | TGI (SNB-19 CNS) | TGI (SF-539 CNS) | TGI (KM12 colon) | TGI (ACHN renal)

N#Cc1nc2c(S(=O)(=O)c3ccccc3)c(N)n(Cc3ccc(Cl)cc3)c2nc1C#N
41 µM: TGI (SNB-19 CNS)
inactive: GI50 (SNB-19 CNS) 13.8 µM | GI50 (OVCAR-4 ovarian) 17.8 µM | GI50 (MCF7 breast) 7.38 µM | GI50 (M14 melanoma) 20.9 µM | GI50 (SF-539 CNS) 19.4 µM | GI50 (KM12 colon) 17.1 µM | GI50 (NCI-H522 lung) 7.18 µM | GI50 (ACHN renal) 4.23 µM
13 µM: TGI (ACHN renal)
> 50 µM: TGI (OVCAR-4 ovarian) | TGI (MCF7 breast) | TGI (M14 melanoma) | TGI (SF-539 CNS) | TGI (KM12 colon) | TGI (NCI-H522 lung)

CS(=O)(=O)N(CCC#N)c1ccc(C=O)cc1
> 100 µM: TGI (SNB-75 CNS) | TGI (SNB-19 CNS) | TGI (OVCAR-4 ovarian) | TGI (M14 melanoma) | TGI (SF-539 CNS) | TGI (KM12 colon) | TGI (NCI-H522 lung) | TGI (ACHN renal)

CCOC(=O)C(C)(C)Oc1ccc2c(-c3ccc(Cl)cc3)c(-c3ccc(Cl)cc3)c(=O)oc2c1
> 100 µM: TGI (SNB-75 CNS) | TGI (SNB-19 CNS) | TGI (OVCAR-4 ovarian) | TGI (M14 melanoma) | TGI (SF-539 CNS) | TGI (CCRF-CEM leukemia) | TGI (ACHN renal)

Cc1c(-c2nnc(-c3ccccc3)o2)c(=O)n(-c2ccccc2)n1C
> 100 µM: TGI (SNB-75 CNS) | TGI (SNB-19 CNS) | TGI (OVCAR-4 ovarian) | TGI (M14 melanoma) | TGI (SF-539 CNS) | TGI (KM12 colon) | TGI (NCI-H522 lung) | TGI (CCRF-CEM leukemia) | TGI (ACHN renal)
